We go through eight compounds from ChEMBL document CHEMBL3044728, “Synthesis and biological activity of new (E)-alpha-(Methoxyimino)benzeneacetate derivatives containing a substituted pyrazole ring” (2010).

Assay type in all cases: functional
Assay [1] deals with Phytophthora infestans. The experiment in a line: Antifungal activity against Phytophthora infestans assessed as inhibition at 25 mg/L relative to control.
Assay [2] concerns Pyricularia oryzae. The experiment in a line: Antifungal activity against Magnaporthe oryzae assessed as inhibition at 0.92 mg/L relative to control.
Assay [3] has as its system Pyricularia oryzae. Description: Antifungal activity against Magnaporthe oryzae assessed as inhibition at 25 mg/L relative to control.
For assay [4], the system named is Blumeria graminis. Description: Antifungal activity against Blumeria graminis assessed as inhibition at 1.56 mg/L relative to control.
For assay [5], the system named is Blumeria graminis. The experiment in a line: Antifungal activity against Blumeria graminis assessed as inhibition at 6.25 mg/L relative to control.
In assay [6] the test system is Pseudoperonospora cubensis. Description: Antifungal activity against Pseudoperonospora cubensis assessed as inhibition at 6.25 mg/L relative to control.
In assay [7] the test system is Blumeria graminis. The experiment in a line: Antifungal activity against Blumeria graminis assessed as inhibition at 400 mg/L relative to control.
For assay [8], the system named is Pseudoperonospora cubensis. Description: Antifungal activity against Pseudoperonospora cubensis assessed as inhibition at 25 mg/L relative to control.
Assay [9] deals with Phytophthora infestans. The experiment in a line: Antifungal activity against Phytophthora infestans assessed as inhibition at 0.92 mg/L relative to control.
Assay [10] concerns Pseudoperonospora cubensis. Description: Antifungal activity against Pseudoperonospora cubensis assessed as inhibition at 400 mg/L relative to control.
The subject of the next assay is Myzus persicae. The experiment in a line: Insecticidal activity against Myzus persicae (green peach aphid) at 600 mg/L relative to control.

Usually inhibition stands for the drop in the measured response relative to a control, in per cent. Take `CNC(=O)/C(=N/OC)c1ccccc1COc1c(C)c(-c2ccc(C)c(C)c2)nn1C`: the inhibition at 25 µg/mL (in the assay with Phytophthora infestans [1]; with Pyricularia oryzae [3]; in [8]) was 100% throughout. Moreover, the figures for the inhibition at 0.92 µg/mL in the assay with Pyricularia oryzae [2] and with Phytophthora infestans [9] were 80% and 100%, respectively. Besides, the inhibition at 1.56 µg/mL in the assay with Blumeria graminis [4] was determined as 55%. The inhibition at 6.25 µg/mL was 100% with Blumeria graminis [5] and 40% in [6]. For the same compound, the inhibition at 400 µg/mL (with Blumeria graminis [7]; in assay [10]) was 100% throughout.
In the case of `CNC(=O)/C(=N/OC)c1ccccc1COc1cc(-c2ccccc2OC)nn1C`, the inhibition at 25 µg/mL in the assay on Phytophthora infestans [1] stood at 0%; in the assay on Pyricularia oryzae [3], 100%; in assay [8], 10%. Besides, the inhibition at 0.92 µg/mL with Pyricularia oryzae [2] amounted to 0%. Moreover, the Activity with Myzus persicae came to 100%. Moreover, the inhibition at 1.56 µg/mL in the assay on Blumeria graminis [4] turned out to be 45%. The inhibition at 6.25 µg/mL with Blumeria graminis [5] was found to be 100%. Also, the results for the inhibition at 400 µg/mL (in the assay on Blumeria graminis [7]; in assay [10]) were 100% and 75%, respectively.
For the compound `CNC(=O)/C(=N/OC)c1ccccc1COc1cc(-c2ccc(C)cc2C)nn1C`, the inhibition at 25 µg/mL (with Phytophthora infestans [1]; in the assay on Pyricularia oryzae [3]; in assay [8]) was 100% each time. Moreover, the inhibition at 0.92 µg/mL in the assay on Pyricularia oryzae [2] came to 50%; in the assay with Phytophthora infestans [9] it was 100%. Further, in the assay on Blumeria graminis [4], the inhibition at 1.56 µg/mL came out at 30%. Besides, the figures for the inhibition at 6.25 µg/mL (in the assay with Blumeria graminis [5]; in assay [6]) were 100% and 70%, respectively. Moreover, the inhibition at 400 µg/mL (with Blumeria graminis [7]; in assay [10]) was 100% in each case.
In the case of `CO/N=C(/C(=O)OC)c1ccccc1COc1c(C)c(-c2ccc(OC)cc2)nn1C`, the inhibition at 25 µg/mL in the assay with Phytophthora infestans [1] is 100%; with Pyricularia oryzae [3], 100%; in assay [8], 55%. In addition, the values for the inhibition at 0.92 µg/mL in the assay on Pyricularia oryzae [2] and in the assay on Phytophthora infestans [9] were 80% and 50%, respectively. Also, the inhibition at 1.56 µg/mL with Blumeria graminis [4] was found to be 30%. In addition, the results for the inhibition at 6.25 µg/mL (in the assay with Blumeria graminis [5]; in assay [6]) were 85% and 15%, respectively. Also, the inhibition at 400 µg/mL (in the assay with Blumeria graminis [7]; in assay [10]) was 100% each time.
With `CO/N=C(/C(=O)OC)c1ccccc1COc1c(C)c(-c2ccc(C)cc2C)nn1C`, the inhibition at 25 µg/mL (in the assay with Phytophthora infestans [1]; with Pyricularia oryzae [3]; in assay [8]) was 100% throughout. Moreover, the results for the inhibition at 0.92 µg/mL in the assay with Pyricularia oryzae [2] and in the assay with Phytophthora infestans [9] were 80% and 100%, respectively. For the same compound, the inhibition at 1.56 µg/mL in the assay on Blumeria graminis [4] stood at 75%. Also, the values for the inhibition at 6.25 µg/mL (with Blumeria graminis [5]; in assay [6]) were 100% and 98%, respectively. Further, the inhibition at 400 µg/mL (in the assay on Blumeria graminis [7]; in [10]) was 100% throughout.
Take `CO/N=C(/C(=O)OC)c1ccccc1COc1c(C)c(-c2ccc(C)c(C)c2)nn1C`: the inhibition at 25 µg/mL came out at 100% with Phytophthora infestans [1], 100% in the assay on Pyricularia oryzae [3] and 75% in [8]. Also, the figures for the inhibition at 0.92 µg/mL in the assay on Pyricularia oryzae [2] and in the assay with Phytophthora infestans [9] were 80% and 100%, respectively. In the assay with Blumeria graminis [4], the inhibition at 1.56 µg/mL was 60%. In addition, the inhibition at 6.25 µg/mL in the assay with Blumeria graminis [5] was 100%; in assay [6], 70%. In addition, the inhibition at 400 µg/mL (in the assay on Blumeria graminis [7]; in assay [10]) was 100% throughout.
Turning to `CO/N=C(/C(=O)OC)c1ccccc1COc1cc(-c2ccc(C)cc2C)nn1C`, the inhibition at 25 µg/mL was 100% in the assay with Phytophthora infestans [1], 100% with Pyricularia oryzae [3] and 90% in assay [8]. The inhibition at 0.92 µg/mL with Pyricularia oryzae [2] was determined as 0%; in the assay on Phytophthora infestans [9], 100%. In addition, the Activity in the assay on Myzus persicae is given as 100%. In addition, the inhibition at 6.25 µg/mL (with Blumeria graminis [5]; in [6]) was 65% throughout. Also, the inhibition at 400 µg/mL came out at 100% in the assay with Blumeria graminis [7] and 95% in assay [10].
On to `CO/N=C(/C(=O)OC)c1ccccc1COc1cc(-c2ccccc2)nn1C`, for which the inhibition at 25 µg/mL in the assay with Phytophthora infestans [1] came to 0%; in the assay on Pyricularia oryzae [3] it was 0%; in assay [8], 70%. Moreover, the Activity in the assay on Myzus persicae was 100%. Also, the inhibition at 400 µg/mL worked out at 70% in the assay on Blumeria graminis [7] and 95% in assay [10].
